In patent publication US20200077658A1, “Pesticidal Compounds” (BASF SE, priority 2016, published 2020):

Tests used:
Type in all cases: in vivo
[1] = tested on: boll weevil (Anthonomus grandis); assay: Action on boll weevil (Anthonomus grandis), 96-well microtiter plate diet test; conditions: 120 h, egg and larval mortality after 5 days, read-out: mortality in comparison with untreated controls
Description: For evaluating control of boll weevil (Anthonomus grandis) the test unit consisted of 96-well-microtiter plates containing an insect diet and 5-10 A. grandis eggs.
The compounds were formulated using a solution containing 75% v/v water and 25% v/v DMSO. Different concentrations of formulated compounds were sprayed onto the insect diet at 5 μl, using a custom built micro atomizer, at two replications.
After application, microtiter plates were incubated at about 25±1° C. and about 75±5% relative humidity for 5 days. Egg and larval mortality was then visually assessed.

[2] = tested on: Silverleaf Whitefly (Bemisia argentifoli) (Adults); assay: Action on silverleaf whitefly (Bemisia argentifoli) adults, sprayed cotton plants; conditions: Bemisia argentifolii, 72 h, 3 days after treatment, read-out: mortality in comparison with untreated controls
Description: The active compounds were formulated by a Tecan liquid handler in 100% cyclohexanone as a 10,000 ppm solution supplied in tubes. The 10,000 ppm solution was serially diluted in 100% cyclohexanone to make interim solutions. These served as stock solutions for which final dilutions were made by the Tecan in 50% acetone:50% water (v/v) into 5 or 10 ml glass vials. A nonionic surfactant (Kinetic®) was included in the solution at a volume of 0.01% (v/v). The vials were then inserted into an automated electrostatic sprayer equipped with an atomizing nozzle for application to plants/insects.
Cotton plants at the cotyledon stage (one plant per pot) were sprayed by an automated electrostatic plant sprayer equipped with an atomizing spray nozzle. The plants were dried in the sprayer fume hood and then removed from the sprayer. Each pot was placed into a plastic cup and about 10 to 12 whitefly adults (approximately 3-5 days old) were introduced. The insects were collected using an aspirator and a nontoxic Tygon® tubing connected to a barrier pipette tip. The tip, containing the collected insects, was then gently inserted into the soil containing the treated plant, allowing insects to crawl out of the tip to reach the foliage for feeding. Cups were covered with a reusable screened lid. Test plants were maintained in a growth room at about […] and about 20-40% relative humidity for 3 days, avoiding direct exposure to fluorescent light (24 hour photoperiod) to prevent trapping of heat inside the cup. Mortality was assessed 3 days after treatment, compared to untreated control plants.

[3] = tested on: tobacco budworm (Heliothis virescens); assay: Action on tobacco budworm (Heliothis virescens), 96-well microtiter plate diet test; conditions: 120 h, egg and larval mortality after 5 days, read-out: mortality in comparison with untreated controls
Description: For evaluating control of tobacco budworm (Helliothis virescens) the test unit consisted of 96-well-microtiter plates containing an insect diet and 15-25 H. virescens eggs.
The compounds were formulated using a solution containing 75% v/v water and 25% v/v DMSO. Different concentrations of formulated compounds were sprayed onto the insect diet at 10 μl, using a custom built micro atomizer, at two replications.
After application, microtiter plates were incubated at about 28±1° C. and about 80±5% relative humidity for 5 days. Egg and larval mortality was then visually assessed.

[4] = tested on: Orchid thrips (Dichromothrips corbetti); assay: Action on orchid thrips (Dichromothrips corbetti), floral-immersion technique; conditions: adult thrips, mortality 72 hours after treatment, read-out: mortality in comparison with untreated controls
Description: Dichromothrips corbetti adults used for bioassay were obtained from a colony maintained continuously under laboratory conditions. For testing purposes, the test compound is diluted in a 1:1 mixture of acetone:water (vol:vol), plus Kinetic® HV at a rate of 0.01% v/v.
Thrips potency of each compound was evaluated by using a floral-immersion technique. All petals of individual, intact orchid flowers were dipped into treatment solution and allowed to dry in Petri dishes. Treated petals were placed into individual re-sealable plastic along with about 20 adult thrips. All test arenas were held under continuous light and a temperature of about 28° C. for duration of the assay. After 3 days, the numbers of live thrips were counted on each petal. The percent mortality was recorded 72 hours after treatment.

[5] = tested on: yellow fever mosquito (Aedes aegypti); assay: whole plant or invertebrate; conditions: 48 h, larval mortality visually assessed after 2 days, read-out: mortality in comparison with untreated controls
Description: For evaluating control of yellow fever mosquito (Aedes aegypti) the test unit consisted of 96-well-microtiter plates containing 200 μl of tap water per well and 5-15 freshly hatched A. aegypti larvae.
The active compounds were formulated using a solution containing 75% (v/v) water and 25% (v/v) DMSO. Different concentrations of formulated compounds or mixtures were sprayed onto the insect diet at 2.5 μl, using a custom built micro atomizer, at two replications.
After application, microtiter plates were incubated at 28±1° C., 80±5% RH for 2 days. Larval mortality was then visually assessed.

[6] = tested on: Southern Armyworm (Spodoptera eridania), 2nd Instar Larvae; assay: Action on southern armyworm (Spodoptera eridania), 2nd instar larvae, sprayed lima bean plants; conditions: 96 h, 2nd instar larvae on lima bean, 4 days after treatment, read-out: mortality in comparison with untreated controls
Description: The active compounds were formulated by a Tecan liquid handler in 100% cyclohexanone as a 10,000 ppm solution supplied in tubes. The 10,000 ppm solution was serially diluted in 100% cyclohexanone to make interim solutions. These served as stock solutions for which final dilutions were made by the Tecan in 50% acetone:50% water (v/v) into 10 or 20 ml glass vials. A nonionic surfactant (Kinetic®) was included in the solution at a volume of 0.01% (v/v). The vials were then inserted into an automated electrostatic sprayer equipped with an atomizing nozzle for application to plants/insects.
Lima bean plants (variety Sieva) were grown 2 plants to a pot and selected for treatment at the 1st true leaf stage. Test solutions were sprayed onto the foliage by an automated electrostatic plant sprayer equipped with an atomizing spray nozzle. The plants were dried in the sprayer fume hood and then removed from the sprayer. Each pot was placed into perforated plastic bags with a zip closure. About 10 to 11 armyworm larvae were placed into the bag and the bags zipped closed. Test plants were maintained in a growth room at about 250C and about 20-40% relative humidity for 4 days, avoiding direct exposure to fluorescent light (24 hour photoperiod) to prevent trapping of heat inside the bags. Mortality and reduced feeding were assessed 4 days after treatment, compared to untreated control plants.

[7] = tested on: Diamond Back Moth (Plutella xylostella); assay: Action on diamond back moth (Plutella xylostella), cabbage leaf dip; conditions: foliar, 3rd instar larvae on dipped cabbage leaves, 72 hours after treatment, read-out: mortality in comparison with untreated controls
Description: The active compound is dissolved at the desired concentration in a mixture of 1:1 (vol:vol) distilled water:acetone. Surfactant (Kinetic® HV) is added at a rate of 0.01% (vol/vol).The test solution is prepared at the day of use.
Leaves of cabbage were dipped in test solution and air-dried. Treated leaves were placed in petri dishes lined with moist filter paper and inoculated with ten 3rd instar larvae. Mortality was recorded 72 hours after treatment. Feeding damages were also recorded using a scale of 0-100%.

CC(C)c1ccccc1N1C(=O)CS\C1=N/N=C/C=C/c1cnc(N(C)c2ccc(OC(F)(F)F)cc2)nc1 [Compound C-5, (2Z)-3-(2-isopropylphenyl)-2-[(E)-[(E)-3-[2-[N-methyl-4-(trifluoromethoxy)anilino]pyrimidin-5-yl]prop-2-enylidene]hydrazono]thiazolidin-4-one]
≥ 75%: mortality at 800 ppm [1] | mortality at 300 ppm [2] | mortality at 800 ppm [3] | mortality at 500 ppm [4] | mortality at 800 ppm [5] | mortality at 300 ppm [6] | mortality at 500 ppm [7]

CC(/C=N/N=C1\SCC(=O)N1c1ccccc1C(C)C)=C\c1ccc(N(C)c2ccc(OC(F)(F)F)cc2)nc1 [Compound C-12, (2Z)-3-(2-isopropylphenyl)-2-[(E)-[(E)-2-methyl-3-[6-[N-methyl-4-(trifluoromethoxy)anilino]-3-pyridyl]prop-2-enylidene]hydrazono]thiazolidin-4-one]
≥ 75%: mortality at 800 ppm [1] | mortality at 300 ppm [2] | mortality at 800 ppm [3] | mortality at 500 ppm [4] | mortality at 800 ppm [5] | mortality at 300 ppm [6] | mortality at 500 ppm [7]

CO[C@@H]1[C@@H](OC)[C@@H](OC)C(O/N=C/C(C)=C/c2cnc(N(C)c3ccc(OC(F)(F)F)cc3)nc2)O[C@H]1C (stereo partly drawn) [Compound C-23, N-methyl-5-[(E,3E)-2-methyl-3-[(3R,4R,5S,6S)-3,4,5-trimethoxy-6-methyl-tetrahydropyran-2-yl]oxyimino-prop-1-enyl]-N-[4-(trifluoromethoxy)phenyl]pyrimidin-2-amine]
≥ 75%: mortality at 800 ppm [1] | mortality at 300 ppm [2] | mortality at 800 ppm [3] | mortality at 500 ppm [4] | mortality at 800 ppm [5] | mortality at 300 ppm [6] | mortality at 500 ppm [7]

CC(/C=N/N=C1\SCC(=O)N1c1ccccc1C(C)C)=C\c1cnc(Nc2ccc(OC(F)(F)F)cc2)nc1 [Compound C-3, (2Z)-3-(2-isopropylphenyl)-2-[(E)-[(E)-2-methyl-3-[2-[4-(trifluoromethoxy)anilino]pyrimidin-5-yl]prop-2-enylidene]hydrazono]thiazolidin-4-one]
≥ 75%: mortality at 800 ppm [1] | mortality at 300 ppm [2] | mortality at 800 ppm [3] | mortality at 500 ppm [4] | mortality at 800 ppm [5] | mortality at 300 ppm [6] | mortality at 500 ppm [7]

CC(/C=N/NC(=S)Nc1ccccc1C(C)C)=C\c1cnc(N(C)c2ccc(OC(F)(F)F)cc2)nc1C [Compound C-16, 1-(2-isopropylphenyl)-3-[(E)-[(E)-2-methyl-3-[4-methyl-2-[N-methyl-4-(trifluoromethoxy)anilino]pyrimidin-5-yl]prop-2-enylidene]amino]thiourea]
≥ 75%: mortality at 800 ppm [1] | mortality at 300 ppm [2] | mortality at 800 ppm [3] | mortality at 500 ppm [4] | mortality at 800 ppm [5] | mortality at 300 ppm [6] | mortality at 500 ppm [7]

CC(/C=N/N=C1\SCC(=O)N1c1ccccc1C(C)C)=C\c1cnc(N(C)c2ccc(OC(F)(F)F)cc2)nc1C [Compound C-17, (2Z)-3-(2-isopropylphenyl)-2-[(E)-[(E)-2-methyl-3-[4-methyl-2-[N-methyl-4-(trifluoromethoxy)anilino]pyrimidin-5-yl]prop-2-enylidene]hydrazono]thiazolidin-4-one]
≥ 75%: mortality at 800 ppm [1] | mortality at 300 ppm [2] | mortality at 800 ppm [3] | mortality at 500 ppm [4] | mortality at 800 ppm [5] | mortality at 300 ppm [6] | mortality at 500 ppm [7]
